Source: patent US20240101599A1, “PEPTIDE, CELL GROWTH PROMOTER, PROTEIN PRODUCTION PROMOTER, CULTURE MEDIUM, CELL GROWTH METHOD USING PEPTIDE, AND PROTEIN PRODUCTION METHOD USING PEPTIDE” (Maruhachi Muramatsu, Inc., priority 2020, published 2024)

What was measured:
[1] = system: CHO-K1; assay: Relationship between concentration of each peptide solution and viable cell count (absorbance); type: cell-based; details: for Absorbance (450 nm): 5 days, MEMα without FBS, n = 3 average, 0 mM = 0.0000; for cell growth promotion, order of the peptides: in words, promoted in the order GEK, DGP, AGK, GPP, GGP, AEK, AGG, ASN, EGK (strongest first)
Experimental: Peptides having the sequences of Gly-Glu-Lys (GEK), Asp-Gly-Pro (DGP), Ala-Gly-Lys (AGK), Gly-Pro-Pro (GPP), Gly-Gly-Pro (GGP), Ala-Glu-Lys (AEK), Ala-Gly-Gly (AGG), Ala-Ser-Asn (ASN), and Glu-Gly-Lys (EGK), and Gly-Gly-Gly (GGG) are synthesized to prepare each of peptide solutions at 10-fold concentrations shown in Tables 1 to 10.
A cell suspension prepared such that CHO-K1 (RI KEN BioResource Research Center, cell number: RCB2330) was at 3×10^4 cells/mL was seeded in a 96-well plate at 100 μL/well and cultured in an incubator at 37° C. and 5% CO2 for 24 hours. As a culture medium, an MEMα culture medium (Gibco) containing 10% FBS was used.
After removing the culture medium from each well and washing with the MEMα culture medium (100 μL), 90 μL of a new MEMa culture medium was dispensed into each well, and each peptide solution (10 μL) was added (total 100 μL/well) such that final concentrations were within a range of 0 mM to 5 mM as shown in Tables 1 to 10 to perform culture for 5 days. A similar culture test was performed using a system containing neither peptide nor FBS as a comparative sample. After culturing for 5 days, 10 μL/well of a viable cell count measurement reagent SF (Nacalai Tesque Inc.) was added, and a color reaction was carried out in an incubator at 37° C. and 5% CO2 for 2 hours to measure an absorbance at 450 nm with a plate reader. A reference wavelength was 630 nm. It was confirmed that the absorbance at 450 nm correlated with the cell number.
The above preparation, culture, and measurement were performed with n=3, and Tables 1 to 10 and FIGS. 1 to 10 show the absorbance at the concentration of each peptide solution.

[2] = system: CHO-K1; assay: Cell growth test of each peptide on coating agent for 5 days; type: cell-based; design: Viability, 1 / Viability, 2 / Viability, 3 / Viability, Mean: unit not given here; details: 2.0 mM Ala-Gly-Lys, 2.1 mM Gly-Glu-Lys, 2.5 mM Gly-Gly-Gly, poly-L-lysine coating
Experimental: Peptides having the sequences of Asp-Gly-Pro (DGP), Ala-Gly-Lys (AGK), Gly-Glu-Lys (GEK), and Gly-Gly-Gly (GGG) were synthesized to prepare each peptide solution such that the concentration was a concentration at which the cell number increased the most within a range of 0 mM to 5 mM. In other words, Asp-Gly-Pro (DGP) was adjusted to 22 mM, Ala-Gly-Lys (AGK) was adjusted to 20 mM, Gly-Glu-Lys (GEK) was adjusted to 21 mM, and Gly-Gly-Gly (GGG) was adjusted to 25 mM, and an amount of 1/10 of the total culture medium volume was added to each well immediately before the cell culture test such that final concentrations were 2.2 mM, 2.0 mM, 2.1 mM, and 2.5 mM, respectively. Poly-L-lysine (Peptide Institute, Inc., Poly-L-Lysine Hydrochloride, code: 3075) was prepared to 0.1 mg/mL, and 200 μL was dispensed into each well of a 24-well plate, which was left to stand in an incubator at 37° C. for 2 hours. After removing the residual liquid with an aspirator, rinsing was performed with distilled water, irradiation was performed with a UV lamp in a clean bench without a lid, and drying was performed overnight to sterilize. A cell suspension prepared such that CHO-K1 (RIKEN BioResource Research Center, cell number: RCB2330) was at 4×10^4 cells/mL was seeded in each well of a 24-well plate at 500 μL/well and cultured in an incubator at 37° C. and 5% CO2 for 24 hours. As a culture medium, an MEMα culture medium (Gibco) containing 10% FBS was used.
After removing the culture medium from each well and washing with the MEMα culture medium (500 μL), 450 μL of a new MEMα culture medium was dispensed into each well, and each peptide solution (50 μL) was added (total 500 μL/well) to perform culture for 5 days. The cells were recovered to count the cell number. A similar culture test was performed using a system containing neither peptide nor FBS as a comparative sample.
The culture medium in each well was recovered in a 1.5 mL tube to be rinsed with 200 μL of MEMα, and the rinsed liquid was also recovered in the same 1.5 mL tube. Thereafter, 100 μL of trypsin was added and incubated for 3 minutes. After rinsing with 300 μL of MEMα containing 10% FBS, the rinsed liquid was also recovered in the same 1.5 mL tube. After rinsing again with 200 μL of MEMα containing 10% FBS, the rinsed liquid was also recovered in the same 1.5 mL tube.
A centrifugation operation was performed on the cells recovered in the 1.5 mL tube. The centrifugation conditions were 1,000 rpm, 10 minutes, and 4° C.
The supernatant was removed, and 300 μL of Cold PBS (phosphate buffered saline) was added to perform a centrifugation operation under the same conditions. The present operation was repeated twice.
Suspension was carried out with 100 μL of Binding Buffer, and 2 μL of propidium iodide (PI) was added and stirred in the tube to cause a reaction for 15 minutes at room temperature and with light shielding. Thereafter, the viable cell count and the cell viability were measured with a flow cytometer.
The above preparation, culture, and measurement were performed with n=3. Table 15 and FIG. 15 show the viable cell count in each peptide solution, and Table 16 and FIG. 16 show the cell viability in each peptide solution.

[3] = replicate 1, 2.2 mM Asp-Gly-Pro
[4] = replicate 2, 2.2 mM Asp-Gly-Pro
[5] = replicate 3, 2.2 mM Asp-Gly-Pro

Substance: Ala-Gly-Gly [AGG]
- Absorbance (450 nm) ([1]; 0.156 mM peptide): 0.0277
- Absorbance (450 nm) ([1]; 0.313 mM peptide): 0.0274
- Absorbance (450 nm) ([1]; 0.625 mM peptide): 0.0967
- Absorbance (450 nm) ([1]; 1.25 mM peptide): 0.2064
- Absorbance (450 nm) ([1]; 2.5 mM peptide): 0.3357
- Absorbance (450 nm) ([1]; 5 mM peptide): 0.2080
- cell growth promotion, order of the peptides [1]: cell growth was promoted

Substance: Ala-Glu-Lys [AEK]
- Absorbance (450 nm) ([1]; 0.129 mM peptide): 0.0350
- Absorbance (450 nm) ([1]; 0.259 mM peptide): 0.1143
- Absorbance (450 nm) ([1]; 0.516 mM peptide): 0.1927
- Absorbance (450 nm) ([1]; 1.03 mM peptide): 0.2337
- Absorbance (450 nm) ([1]; 2.06 mM peptide): 0.5013
- Absorbance (450 nm) ([1]; 4.13 mM peptide): 0.4857
- cell growth promotion, order of the peptides [1]: cell growth was promoted

Substance: Ala-Ser-Asn
- Absorbance (450 nm) ([1]; 0.138 mM peptide): −0.0527
- Absorbance (450 nm) ([1]; 0.276 mM peptide): −0.0250
- Absorbance (450 nm) ([1]; 0.552 mM peptide): −0.0214
- Absorbance (450 nm) ([1]; 1.10 mM peptide): −0.0224
- Absorbance (450 nm) ([1]; 2.21 mM peptide): 0.1170
- Absorbance (450 nm) ([1]; 4.42 mM peptide): 0.3320
- cell growth promotion, order of the peptides [1]: cell growth was promoted

Substance: Glu-Gly-Lys [EGK]
- Absorbance (450 nm) ([1]; 0.128 mM peptide): 0.0383
- Absorbance (450 nm) ([1]; 0.257 mM peptide): 0.1123
- Absorbance (450 nm) ([1]; 0.512 mM peptide): 0.0893
- Absorbance (450 nm) ([1]; 1.02 mM peptide): 0.1503
- Absorbance (450 nm) ([1]; 2.05 mM peptide): 0.1876
- Absorbance (450 nm) ([1]; 4.10 mM peptide): 0.2373
- cell growth promotion, order of the peptides [1]: cell growth was promoted

Substance: Gly-Gly-Pro [GGP]
- Absorbance (450 nm) ([1]; 0.135 mM peptide): 0.0420
- Absorbance (450 nm) ([1]; 0.270 mM peptide): 0.0966
- Absorbance (450 nm) ([1]; 0.539 mM peptide): 0.2946
- Absorbance (450 nm) ([1]; 1.08 mM peptide): 0.4653
- Absorbance (450 nm) ([1]; 2.16 mM peptide): 0.5483
- Absorbance (450 nm) ([1]; 4.31 mM peptide): 0.3286
- cell growth promotion, order of the peptides [1]: cell growth was promoted

Substance: Gly-Gly-Gly [GGG, reference compound]
- Absorbance (450 nm) ([1]; 0.156 mM peptide): 0.0067
- Absorbance (450 nm) ([1]; 0.313 mM peptide): 0.0037
- Absorbance (450 nm) ([1]; 0.625 mM peptide): 0.0027
- Absorbance (450 nm) ([1]; 1.25 mM peptide): −0.0013
- Absorbance (450 nm) ([1]; 2.5 mM peptide): 0.0013
- Absorbance (450 nm) ([1]; 5 mM peptide): 0.0083
- Cells cell count, Mean ([2]; mean n=3, 2.2 mM Asp-Gly-Pro): 0.0502 ×10^4
- Viability, Mean ([2]; mean n=3, 2.2 mM Asp-Gly-Pro): 1.7
- Cells cell count, 1 [2, 3]: 0.1360 ×10^4
- Viability, 1 [2, 3]: 4.45
- Cells cell count, 2 [2, 4]: 0.0080 ×10^4
- Viability, 2 [2, 4]: 0.31
- Cells cell count, 3 [2, 5]: 0.0065 ×10^4
- Viability, 3 [2, 5]: 0.21
